The record followed here is patent EP1180991B1, “GAMBOGIC ACID DERIVATIVES AS ACTIVATORS OF CASPASES AND INDUCERS OF APOPTOSIS” (Cytovia, Inc., priority 1999, dated 2000).

In the assay the test system is PC3 cells. The experiment in a line: PARP cleavage, western blot (Example 98). In kind it is cell-based, human. The protocol: Cleavage of the enzyme poly(ADP)ribose polymerase (PARP) by caspase-3 and related proteases is considered to be one of the molecular hallmarks of caspase-mediated apoptosis. Therefore, the ability of gambogic acid to induce PARP cleavage in four different human tumor cell lines (Jurkat cells, HL-60 cells, T47D cells and PC3 cells) was determined.
[…] Control cultures were treated with a drug vehicle (DMSO), or the well-characterized apoptosis inducer, staurosporine. At the end of the apoptosis induction period, the cells were harvested, washed once with PBS, quick-frozen on dry ice, and stored at -80° C. The cells were then lysed in a standard immunoblotting lysis buffer and samples of the lysates were electrophoresed on 4% to 20% gradient polyacrylamide gels. The proteins in the gels were then transferred to PVDF membranes and probed with a commercially-available rabbit polyclonal antibody to PARP.

`CC(C)=CCC[C@]1(C)C=Cc2c(O)c3c(c(CC=C(C)C)c2O1)O[C@]12C(=C[C@@H]4C[C@H]1C(C)(C)O[C@@]2(C/C=C(/C)C(=O)O)C4=O)C3=O` [Example 1, Gambogic Acid]: the PARP cleavage result (2.5 µM and 5 µM, 2 h (Fig. 5D)) was “neither concentration (2.5 µM and 5 µM) of drug was effective”; the PARP cleavage entry (5 µM, 4 h (Fig. 5D)) is “a moderate amount of PARP cleavage product”.
